# Reference: US20220409617A1, “Drug Formulations and Methods of Treatment for Metabolic Disorders” (The Regents of the University of California, priority 2019, published 2022)
# Key:
# [1] = system: AKT; test: Insulin-stimulated AKT activation, western blot; assay type: cell-based, mouse; conditions: 3T3-L1 adipocytes; 3 h pre-treatment, C2-ceramide 50 or 100 μM, 893 5 or 10 μM; insulin 100 nM 15 min
# Description: 3T3-L1 cells were maintained in DMEM with 10% FBS and 1% penicillin-streptomycin until induced to differentiate. 3T3-L1 pre-adipocytes were differentiated as described in (M. P. Valley, et al., Anal. Biochem. 505: 43-50, 2016, the disclosure of which is incorporated herein by reference) with slight modifications. Briefly, pre-adipocytes were grown to confluence. After 2 d, cells were induced with maintenance media containing 500 μM IBMX (15879, Sigma-Aldrich, St. Louis, Mo.), 1 μM dexamethasone (D4902, Sigma-Aldrich), 5 μg/mL bovine insulin (10516, Sigma-Aldrich), and 5 μM troglitazone (50-115-0786, ApexBio). Media was changed every 2-3 d for 7 d. On day 7 post-induction, media was changed to maintenance media+5 μg/mL bovine insulin. On day 9 post-induction, media was changed to maintenance media. Mature adipocytes were used 12-14 d post-induction for all experiments. […]
# Mature adipocytes were serum starved for 16 h then treated with vehicle, ceramide (50 or 100 μM), or sphingolipid-like compound 893 (5 or 10 μM) in serum-free media supplemented with 0.2% fatty-acid free BSA for 3 h after which 100 nM insulin was added for 15 min. […] Protein content was quantified in the supernatant using the Pierce™ BCA Protein Assay Kit (Thermo-Fisher Scientific, Waltham, Mass.). […]
# [2] = system: mouse embryonic fibroblasts (MEFs); test: Ceramide-induced (C16:0 CER, C2-ceramide) mitochondrial fragmentation; assay type: cell-based; conditions: MEFs, 893 5 μM
# Description: 3T3-L1 cells were maintained in DMEM with 10% FBS and 1% penicillin-streptomycin until induced to differentiate. 3T3-L1 pre-adipocytes were differentiated as described in (M. P. Valley, et al., Anal. Biochem. 505: 43-50, 2016, the disclosure of which is incorporated herein by reference) with slight modifications. Briefly, pre-adipocytes were grown to confluence. After 2 d, cells were induced with maintenance media containing 500 μM IBMX (15879, Sigma-Aldrich, St. Louis, Mo.), 1 μM dexamethasone (D4902, Sigma-Aldrich), 5 μg/mL bovine insulin (10516, Sigma-Aldrich), and 5 μM troglitazone (50-115-0786, ApexBio). Media was changed every 2-3 d for 7 d. On day 7 post-induction, media was changed to maintenance media+5 μg/mL bovine insulin. On day 9 post-induction, media was changed to maintenance media. Mature adipocytes were used 12-14 d post-induction for all experiments. LSL-KrasG12D mouse embryonic fibroblasts (MEFs) with and without Cre-mediated deletion of the STOP cassette were obtained from David Tuveson (Cold Spring Harbor Laboratory, Cold Spring Harbor N.Y., USA) in 2000. p53^flox/flox MEFs were derived in house (2015) from C57BL/6 mice using standard techniques and immortalized by transient expression of Cre recombinase and deletion of p53. MEFs were cultured and maintained in DMEM with 10% FBS and 1% penicillin-streptomycin. A549 cells were cultured in DMEM with 10% FBS, 1% penicillin-streptomycin and 1% sodium pyruvate. Stock solution of palmitic acid (ACROS Organics, cat # AC129702500) was prepared at 100 mM in ethanol. Palmitate (250 μM) was conjugated to 1% (w/v) fatty-acid free bovine serum albumin (Sigma, A8806) in DMEM at 37° C. for 20 min. For all immunofluorescence assays, 8,000 MEFs were seeded into 8-chamber slides (Cellvis, cat # C8-1.5H-N) 12-16 h before treatment. Cells were pre-treated with sphingolipid-like compound 893 (5 μM in water), myriocin (10 μM in methanol), fumonisin-B1 (30 μM in DMSO), or celastrol (500 nM in DMSO) for 3 h followed by a 3 h treatment with BSA-conjugated palmitate mixture or BSA alone. Where cells were treated with C2-ceramide (50 μM in DMSO) or C16:0 ceramide (100 μM in ethanol) for 3 h, cells were pre-treated with sphingolipid-like compound 893 for 1-3 h as indicated, mdivi-1 (50 μM in DMSO) for 1 h or 24 h, M1 (5 μM in DMSO) for 24 h, mdivi-1 and M1 together for 24 h, leflunomide (50 μM in methanol) for 1 h or 24 h, or with P110 (1 μM in water) for 1 h or 12 h. LSL or KRAS^G12D MEFs were treated with sphingolipid-like compound 893 (5 μM) for 6 h prior to fixation.
# MEFs were washed twice with PBS and fixed with 4% paraformaldehyde for 10 min at RT. Cells were permeabilized with 0.3% Triton X-100 in blocking buffer containing 10% fetal bovine serum for 20 min at 37° C. followed by overnight incubation with mouse anti-citrate synthase (sc-390693, Santa Cruz Biotechnology; dilution, 1:200) or rabbit-anti-DRP1 at 1:100 (#8570, Cell Signaling Technology) at 4° C. Cells were then washed twice with PBS and incubated with AlexaFluor 488 goat anti-mouse (A28175, Invitrogen) or AlexaFluor 594 donkey anti-rabbit (A32754, Invitrogen) secondary antibodies at RT followed by 5 min incubation with 1 μg/ml DAPI and 2 washes in PBS. For NADH autofluorescence studies, mice were gavaged with vehicle or 120 mg/kg sphingolipid-like compound 893 at ZT8.5 (4-10.5 h before sacrifice between ZT12.5 and ZT18). Post sacrifice, livers were excised, washed 3× with PBS, placed in DMEM supplemented with 10% FBS and 1% penicillin-streptomycin, and immediately imaged. NADH/NADPH autofluorescence was detected with 740 nm excitation and 450±50 nm detectors using a Mai Tai two-photon laser. Fluorescence microscopy was performed on a Zeiss LSM 780 confocal using a 63× oil objective with a […] numerical aperture (NA) or using a Nikon TE2000-S inverted epifluorescence microscope with a 100× oil objective (1.3 NA) and a Photometrics CoolSNAP ES2 monochrome CCD camera. […]
# [3] = cited from earlier work
# [4] = 120 mg/kg by oral gavage, prior studies
smiles,measurement,setting,value
CCCCCCCCc1ccc([C@H]2CCN[C@@H]2CO)cc1.Cl [compound 893],Insulin-stimulated AKT activation,[1],"but not sphingolipid-like compound 893, interfered with insulin-stimulated AKT activation"
same,Pre-treatment time after which the compound was effective against C16:0 ceramide-induced fragmentation,[2],1 h
same,Protection from ceramide-induced mitochondrial fragmentation,"[2]; C16:0 CER 100 μM or C2-ceramide 50 μM 3 h, mdivi-1 50 μM, M1 5 μM, leflunomide 50 μM, P110 1 μM",blocked ceramide-induced mitochondrial fragmentation
same,Amino acid-dependent mTORC1 signaling,[3]; [4],reduces amino acid-dependent mTORC1 signaling
same,"Toxicity (blood chemistry, complete blood count, liver and small intestine histology)",[3]; [4],without toxicity
same,Tumor growth,[3]; [4],inhibits tumor growth
same,Hepatotoxicity,"[3]; chronic treatment with the high dose, otherwise healthy tumor-bearing mice",not hepatotoxic
